Columns and labels:
TRAP-1 = assay: Pull-down assay: client proteins SIRT3 and SDHB on GST-TRAP1 beads; assay type: binding; conditions: TRAP1-bead form with isolated mitochondria and drug, 4° C., 18 hours (FIG. 14)
Protocol: A pull-down assay was performed to confirm whether SMx competitively binds to SIRT3 and SDHB, which are known as client proteins of TRAP-1. TRAP1 protein in the GST fusion form was purified from bacteria cells and then bound to glutathione beads to make a TRAP1-bead form, and then the TRAP1-bead form was bound to the mitochondria isolated from mammalian cells (Thermo Scientific mitochondria isolation kit) with a drug at 4° C. for 18 hours. The cells were treated with SMx, and gamitrinib and PU-H71, which are previously developed N-terminal domain inhibitors of hsp90s, as the drugs, according to the concentrations shown in the drawing. […] This is strong evidence that SMx has the ability to bind to the middle domain of TRAP-1.

HIF-1α = assay: Western blot of HIF-1α in Muller cells (MIO-M1) under hypoxia; assay type: cell-based; conditions: MIO-M1, hypoxic chamber 1% O2 (FIG. 8)
Protocol: Muller cells (MIO-M1) were cultured at 37° C. and 5% CO2, and DMEM-low glucose (Sigma) including 10% fetal bovine serum and 1% penicillin & streptomycin was used as the medium. A hypoxic chamber was maintained at 37° C., 5% CO2 and 1% O2.
Muller cells (MIO-M1) were seeded in the number of 4×10^5 on a 60-millimeter plate and cultured in 3 ml of medium for 24 hours. The next day, the cells were treated with SMX, a mitochondrial heat shock protein 90 (TRAP1) inhibitor according to the concentrations shown in the drawing and cultured in a hypoxic chamber for 6 hours. Whole cell lysates were made from the cultured cells, electrophoresed, transferred to a PVDF membrane, and then treated with a primary antibody at 4° C. for 18 hours. The next day, the whole cell lysates were treated with a secondary antibody for 1 hour and protein expression was analyzed using a western blotting detection reagent.
Muller cells (MIO-M1) were cultured at 37° C. and 5% CO2, and DMEM-low glucose (Sigma) including 10% fetal bovine serum and 1% penicillin & streptomycin was used as the medium. A hypoxic chamber was maintained at 37° C., 5% CO2 and 1% O2. […] The next day, the whole cell lysates were treated with a secondary antibody for 1 hour and protein expression was analyzed using a western blotting detection reagent.

[1] = test system: oxygen-induced retinopathy mouse model; assay: Oxygen-induced retinopathy mouse model, eye drop administration, retinal vascular analysis; assay type: in vivo, C57BL/6J mice; conditions: 1 mM in Liposic, eye drops 3 times a day, P12 to P17; versus control eye (FIG. 18, 19)
Source text: An oxygen-induced retinopathy mouse model was induced by rearing young C57BL/6J (Hyochang Science Inc.) mice aged 7 days after birth (P7) in a hyperoxic chamber (Coy Lab. in vivo chamber, 75% O2) for 5 days (P12), and then rearing the mice in a normoxic environment for 5 days (P17).
An oxygen-induced retinopathy mouse model was induced by rearing young C57BL/6J (Hyochang Science Inc.) mice aged 7 days after birth (P7) in a hyperoxic chamber (Coy Lab. in vivo chamber, 75% O2) for 5 days (P12), and then rearing the mice in a normoxic environment for 5 days (P17). SMx was diluted with Liposic (solvent) to 1 mM during P12 to P17 (5 days), which is the period of time when oxygen-induced retinopathy is induced from normal oxygen, and then administered by eye drops 3 times a day. The right eye was administered SMx, and the left eye was administered the control Liposic.
The oxygen-induced retinopathy mouse model was formed, and then perfused with 1×PBS and 4% PFA. After mouse eyes were extracted and fixed in 4% PFA, the retinas were isolated. The isolated retinas were washed with 1×PBS, and then blocked (0.1% BSA, 0.1% Triton X-100 in 1×PBS) at room temperature for 1 hour. The retinas were treated with a CD31 blood-vessel staining antibody (CD31, Cell Signaling, 1:100) overnight at 4° C. […] Blood vessel staining was analyzed under a fluorescence microscope (Zen, Axio Zoom). […]

TRAP1 = biological target: T1, TRAP1 (Homo sapiens, UniProt Q12931); assay: Western blot of TRAP1 client proteins (SIRT3, SDHB) in 22Rv1 cell lines; assay type: cell-based; parameters: dose or concentration left out as unconfirmed; conditions: 22Rv1 cells, 2 hours, normalized with DMSO (FIG. 24)
T1 construct: endogenous in cells; host or cells: 22Rv1
T1 sequence (Q12931 60-704): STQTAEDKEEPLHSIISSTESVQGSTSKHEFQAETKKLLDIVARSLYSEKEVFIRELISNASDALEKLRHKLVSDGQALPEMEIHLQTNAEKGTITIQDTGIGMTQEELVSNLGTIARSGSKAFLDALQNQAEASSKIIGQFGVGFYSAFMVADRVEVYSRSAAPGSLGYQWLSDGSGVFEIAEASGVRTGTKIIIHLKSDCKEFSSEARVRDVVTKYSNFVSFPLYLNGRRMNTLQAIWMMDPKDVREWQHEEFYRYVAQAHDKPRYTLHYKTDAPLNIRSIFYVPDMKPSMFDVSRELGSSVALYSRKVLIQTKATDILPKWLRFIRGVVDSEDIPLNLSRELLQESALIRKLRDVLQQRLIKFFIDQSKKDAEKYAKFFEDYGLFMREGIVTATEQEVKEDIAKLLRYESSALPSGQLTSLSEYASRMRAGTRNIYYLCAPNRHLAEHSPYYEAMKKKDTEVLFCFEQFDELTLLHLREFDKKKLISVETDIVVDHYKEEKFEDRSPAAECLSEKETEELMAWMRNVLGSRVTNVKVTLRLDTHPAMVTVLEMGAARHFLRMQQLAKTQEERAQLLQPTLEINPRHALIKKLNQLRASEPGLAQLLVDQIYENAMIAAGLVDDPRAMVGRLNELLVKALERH
Protocol: 22Rv1 cell lines were cultured at 37° C. and 5% CO2, and DMEM-low glucose (Sigma) including 10% fetal bovine serum and 1% penicillin & streptomycin was used as the medium.
22Rv1 cell lines were eeded in the number of 5×10^5 on a 60-millimeter plate, and cultured in 3 ml of medium for 24 hours. The next day, the cells were treated with […] SMx and SM-series (SB-U005, SB-U009, SB-U011, SB-U012), mitochondrial heat shock protein 90 (TRAP1) and cultured for 2 hours. Whole cell lysates were made from the cultured cells, electrophoresed, transferred to a PVDF membrane, and then treated with a primary antibody at 4° C. for 18 hours. The next day, the whole cell lysates were treated with a secondary antibody for 1 hour and protein expression was analyzed using a western blotting detection reagent (FIG. 24).
The cultured cells were treated with the SMx molecule and novel compound molecules SB-U005, SB-U009, SB-U011, and SB-U012 synthesized in Example 6 as drugs, and the treatment results were normalized with DMSO.

`COC1=C(OC)C(=O)C(CCCCCCCCCC[P+](c2ccccc2)(c2ccccc2)c2ccccc2)=C(C)C1=O` [SMx] was tested, and the “binding of the client protein (SIRT3, SDHB) to TRAP-1” value (TRAP-1) was “significantly reduced”, the “expression of HIF-1α” value (HIF-1α) was “suppressed” and the avascular area [1] was “significantly reduced”. The neovascular area [1] was “significantly reduced” and the “concentrations of the client proteins (SIRT3, SDHB)” value (TRAP1) was “significantly decreased”.

— patent publication US12545695B2, “Compounds for inhibiting neovascularization factors and use thereof” (UNIST (ULSAN NATIONAL INSTITUTE OF SCIENCE AND TECHNOLOGY), priority 2019, dated 2026)
